Assay results: patent US20250250308A1, “METHODS AND COMPOSITIONS WITH ANTIFUNGAL ACTIVITY” (priority 2022, published 2025)

Columns and labels:
C. albicans [1] = assay: Intravenous (disseminated candidiasis) infection model, survival; type: in vivo, mouse; settings: C. albicans pre-incubated with 100 nM for two hours prior to IV injection
Description: The wild-type 12-mer is protective in a systemic mouse model of C. albicans infection. Systemic bloodstream infections by C. albicans are the most life-threatening to patients. Mortality rates from disseminated candidiasis exceed 40% and new treatments are in dire need. Since EntV impairs hyphal morphogenesis and biofilm formation rather than killing C. albicans (Graham et al., 2017), it was unclear if EntV and EntV derivatives would be protective in a systemic infection model. To increase the chances of observing an effect, C. albicans were pre-incubated with 100 nM of EntV or the 12-mer for two hours prior to intravenous (IV) injection of 1×10^5 CFU. […] The median survival of animals injected with C. albicans alone was 7.5 days and all animals had expired by 11 days.
Intravenous infection model. The disseminated candidiasis model was performed as described (Miramon and Lorenz, 2016; Williams and Lorenz, 2020). C. albicans SC5314 was grown overnight in YPD at 30° C., then diluted to a very low concentration and grown in a second overnight. The late-log phase culture was collected by centrifugation, washed in PBS, and diluted to 5×10^6 cells/ml in PBS containing vehicle (0.01% DMSO) or 100 nM EntV or the 12-mer peptide and incubated for 2 hours at room temperature. […] Animals were monitored at least twice daily for 21 days for signs of moribundity.

C. albicans [2] = assay: C. albicans adhesion assay (polystyrene plates, crystal violet); type: cell-based; settings: vs. DMSO control
Method: This, like many manifestations of Candida infections, requires adhesion of the fungal cell to surfaces, both biotic and abiotic, whereupon biofilm structures are commonly formed. A model in which binding to plastic surfaces is a measure of the initial stage of biofilm differentiation. In this assay, cells are incubated in polystyrene 96 well plates with the peptides in PBS for one hour and then overlaid with artificial saliva media for 90 minutes before washing and quantitation of adhesion using crystal violet.
C. albicans adhesion assays. The C. albicans adhesion assays were performed using similar techniques as described previously (Gulati et al., 2018). C. albicans strains were grown in YPD broth for 18 h at 30° C. with agitation and then sub-cultured for 4 h in the same conditions. Cells were then collected by centrifugation, washed twice in PBS, and adjusted to a concentration of 1×10^7 cells/ml (measured with Countess II, Life Technologies) in PBS treated with the indicated concentrations of test compounds. The cell suspension was incubated for 1 h at 30° C. with agitation. […]
The adhered cell layer was then stained for 20 minutes with 40 μl of 0.08% crystal violet solution (diluted, Sigma). […] The optical density at 595 nm (OD595) was measured using a Synergy H1 plate reader (BioTek) with Gen5 version 3.08 software (BioTek).

[3] = tested on: Lactobacillus sakei ATCC 15521; assay: Lactobacillus MIC assay (growth in liquid culture); type: cell-based
Method: FIG. 8: EntV fragments have no inhibitory activity against Lactobacillus sakei. L. sakei was cultured in Lactobacilli MRS broth overnight and diluted 1/10 into fresh medium to which EntV and EntV fragments were added at various concentrations. After 24 hours of growth at 30° C., the OD625 readings were taken.
Lactobacillus MIC Assay. For this assay, Lactobacillus sakei ATCC 15521 (Torriani et al., 1996) was used following the methodology as described with a few modifications (Chang et al., 2011). Briefly L. sakei was grown in Lactobacilli MRS broth (Difco, Detroit, MI, USA) for 18 h at 30° C. without agitation (Malheiros et al., 2015). Following adjustment to a concentration of 1×10^6 cells/ml, cells were diluted 1:10 into fresh MRS medium containing the indicated concentrations of EntV fragments. After 24 hours of growth at 30° C. without agitation, OD625 readings were taken using a BioTek Cytation5 plate reader. Readings of blanks (containing fresh MRS medium) were subtracted from sample wells. Three technical replicates were averaged, and the experiment was repeated three times.

C. albicans [4] = assay: Rat venous catheter biofilm model; type: in vivo; settings: 24 h
Method: The wild-type 12-mer (SEQ ID NO: 4) is protective in a rat venous catheter model of C. albicans infection. C. albicans can form prodigious biofilms on implanted medical devices and the presence of an intravenous catheter is, by itself, a significant risk factor for developing disseminated candidiasis. These infections are notoriously difficult to treat and are associated with the drug resistance characteristic of biofilms. Thus, full-length EntV was tested in a model in which an intravenous catheter is implanted into the jugular vein of rats and inoculated with C. albicans with or without the peptide. After 24 hours, the catheter is removed and sectioned to assess fungal burden by plating for CFUs and by scanning electron microscopy (SEM). […] As the minimal peptide length was determined, this model utilized along with the 12-mer peptide, this time at a lower concentration to probe the extent of protection.
Rat catheter model: The protocol for the rat catheter biofilm was conducted as previously described (Andes, et al., 2004). Briefly, indwelling central venous catheters in rats were inoculated with 1×10^6 cells/mL C. albicans with or without 100 nM EntV or 20 nM 12-mer peptide (group size was 3). To quantitate fungal burden after 24 h, the catheter was removed, and 1 cm of the tip placed in a one milliliter of sterile 0.9% NaCl followed by vortexing. A 1:10 serial dilution of this wash fluid was plated on SDA and colonies counted after 24 h of growth at 35° C. For scanning electron microscopy (SEM), catheters were fixed overnight in 4% formaldehyde and 1% glutaraldehyde in PBS. The catheters were then washed with PBS and treated with 1% osmium tetroxide in PBS for 30 min. Serial ethanol washes and critical point drying were used to dry the segments before they were mounted, and palladium-gold coated. All images were taken using a SEM LEO 1530, with Adobe Photoshop CC (20.0.4 release) used for image compilation.

Row | Molecule | Animals alive at end of experiment (day 22) (C. albicans [1]) | Adhesion of C. albicans to polystyrene (C. albicans [2]) | Antibacterial (bacteriocin) activity against L. sakei ([3]; various concentrations, 24 hours) | Catheter surface biofilm by SEM (C. albicans [4]; 20 nM) | Reduction of catheter fungal burden (C. albicans [4]; 20 nM) [logs] | Lowest concentration abrogating growth of L. sakei ([3]; liquid culture, 24 hours at 30° C., OD625) [nM] | Catheter fungal burden (CFUs) (C. albicans [4]; 100 nM, detection limit 100 CFU)
1 | VAGQLALWAVQC [12aa] | about half the animals were still alive | as effective in protecting against C. albicans infection in the worm model and inhibiting surface adhesion as full-length EntV | no longer had bacteriocin activity | largely clear of fungal biofilm | 1.5 | – | –
2 | EntV: 68 amino acid active C-terminal form of the E. faecalis bacteriocin EntV (SEQ ID NO: 14) (protein, listed as Enterococcus faecalis) LGSCVANKIKDEFFAMISISAIVKAAQKKAWKELAVTVLRFAKANGLKTNAIIVAGQLALWAVQCGLS | about half the animals were still alive | significantly reduced adhesion to polystyrene | – | – | – | ≤ 10 | below the limit of detection
